Laboratory results published in patent publication US5043273A, “Phosphorylated glycosidase inhibitor prodrugs” (Monsanto Company, priority 1989, dated 1991).
Where two headings read alike, the source gives them in different places.

Columns and labels:
[1] = tested on: bovine intestinal alkaline phosphatase; test: Dephosphorylation by alkaline phosphatase (biolability of the phosphate group); assay type: in vitro ADME; conditions: 1 mM compound, 130 U/ml enzyme, 37° C., pH 9.5, 16 h, assayed by HPAEC
Procedure: N-Butyldeoxynojirimycin-6-phosphate (1 mM) was incubated with bovine intestinal alkaline phosphatase (Sigma Type VII, 130 U/ml) at 37° C. n 0.1 m Na2 Co3 /NaHCO3 buffer, pH 9.5.

[2] = biological target: T1, Porcine Intestinal Sucrase (Sus scrofa, UniProt P56729); test: Inhibition constants against porcine intestinal sucrase; assay type: biochemical
T1 construct: both chains cut from one SI precursor
T1 sequence (P56729 with tags, fused parts or gaps): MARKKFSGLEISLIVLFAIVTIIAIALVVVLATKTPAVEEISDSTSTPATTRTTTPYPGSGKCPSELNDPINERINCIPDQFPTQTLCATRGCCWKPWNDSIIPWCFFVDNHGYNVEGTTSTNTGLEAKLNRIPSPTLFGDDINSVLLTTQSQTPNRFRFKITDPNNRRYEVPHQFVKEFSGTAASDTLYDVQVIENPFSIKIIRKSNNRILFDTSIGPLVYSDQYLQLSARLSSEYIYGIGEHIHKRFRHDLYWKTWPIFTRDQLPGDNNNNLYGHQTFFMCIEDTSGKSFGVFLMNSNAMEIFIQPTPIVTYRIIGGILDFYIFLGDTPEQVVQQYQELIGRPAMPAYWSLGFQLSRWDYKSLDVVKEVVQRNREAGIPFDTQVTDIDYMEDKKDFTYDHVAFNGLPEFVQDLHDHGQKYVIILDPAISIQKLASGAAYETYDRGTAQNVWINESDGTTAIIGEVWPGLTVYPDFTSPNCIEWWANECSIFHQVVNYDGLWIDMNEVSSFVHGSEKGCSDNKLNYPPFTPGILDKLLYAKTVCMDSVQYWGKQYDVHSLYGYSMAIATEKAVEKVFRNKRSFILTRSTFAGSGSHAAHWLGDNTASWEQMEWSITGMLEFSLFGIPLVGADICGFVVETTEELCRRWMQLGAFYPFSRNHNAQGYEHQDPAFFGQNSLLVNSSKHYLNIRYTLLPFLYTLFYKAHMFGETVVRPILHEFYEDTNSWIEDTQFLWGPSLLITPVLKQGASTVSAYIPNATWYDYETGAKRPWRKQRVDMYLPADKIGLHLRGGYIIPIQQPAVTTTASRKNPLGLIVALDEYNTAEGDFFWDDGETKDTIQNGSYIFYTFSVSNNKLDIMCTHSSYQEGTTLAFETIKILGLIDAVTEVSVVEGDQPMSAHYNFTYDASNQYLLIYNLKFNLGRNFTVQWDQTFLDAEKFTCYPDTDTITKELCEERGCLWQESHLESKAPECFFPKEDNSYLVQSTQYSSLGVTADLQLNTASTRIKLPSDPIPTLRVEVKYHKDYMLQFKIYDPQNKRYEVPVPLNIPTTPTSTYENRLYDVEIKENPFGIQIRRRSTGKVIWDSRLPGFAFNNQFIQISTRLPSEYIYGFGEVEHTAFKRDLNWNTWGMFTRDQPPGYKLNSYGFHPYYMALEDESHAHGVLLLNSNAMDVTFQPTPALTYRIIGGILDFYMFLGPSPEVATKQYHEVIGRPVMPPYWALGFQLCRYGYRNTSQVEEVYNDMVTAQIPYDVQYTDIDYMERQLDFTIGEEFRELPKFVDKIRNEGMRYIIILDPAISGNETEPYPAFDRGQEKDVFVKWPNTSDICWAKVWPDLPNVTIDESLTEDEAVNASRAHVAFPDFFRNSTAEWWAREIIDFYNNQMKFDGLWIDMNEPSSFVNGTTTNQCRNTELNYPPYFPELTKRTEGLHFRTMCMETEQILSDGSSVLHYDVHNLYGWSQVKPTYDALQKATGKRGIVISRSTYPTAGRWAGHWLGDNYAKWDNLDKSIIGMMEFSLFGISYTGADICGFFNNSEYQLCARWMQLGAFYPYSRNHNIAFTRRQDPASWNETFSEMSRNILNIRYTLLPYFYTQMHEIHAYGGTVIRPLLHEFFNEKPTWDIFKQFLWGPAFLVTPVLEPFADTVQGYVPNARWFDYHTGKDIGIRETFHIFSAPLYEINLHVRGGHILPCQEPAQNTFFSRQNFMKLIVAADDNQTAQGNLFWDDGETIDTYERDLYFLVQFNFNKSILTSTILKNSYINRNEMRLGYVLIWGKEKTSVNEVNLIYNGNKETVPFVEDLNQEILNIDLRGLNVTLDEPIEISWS
Procedure: (§1) Porcine Intestinal Sucrase and Maltase. A sucrase-isomaltase complex was extracted from pig small intestine by treatment with urea and then solubilized by digestion with papain. The enzyme-complex was recovered by ethanol precipitation and then further purified by cellulose DE-52 anion exchange chromatography. The activity of sucrase was assayed by incubating an appropriate amount of enzyme at 37° C. in a final volume of 150 μ1 containing 25 mM sodium citrate buffer, pH 6.0, and 30 mM sucrose as substrate. After 30 min. the enzyme was inactivated by heating at 100° C. for 3 min, the reaction mixture centrifuged at 15000×g for 15 min and a 50 µl aliquot of the supernatant removed and the enzymereleased glucose determined by the glucose oxidase-peroxidase method described by Trinder, Ann. Clin. Biochem. 6, 24 (1969). Under the standard assay conditions, the release of glucose was linear up to 10% hydrolysis of the substrate. […] Maltase activity associated with the sucrase-isomaltase complex [Kolinska and Semenze, Biochim. Biophys. Acta 146, 181 (1967)] was assayed in a manner similar to sucrase except that the substrate was 30 mM maltose. Under the standard assay conditions release of glucose was linear up to 8% hydrolysis of the substrate. The specific activity of maltase was 15.2 units/mg protein.
Inhibition constants for the various DNJ derivatives and castanospermine were determined from Lineweaver-Burk plots of the enzyme-catalyzed reaction in the presence and absence of different fixed concentrations of each inhibitor. Incubations using sucrase were for 30 min at a concentration of 90 milliunits/ml and for maltase were for 12 min at a concentration of 80 milliunits/ml.

[3] = biological target: T2, Porcine Microsomal Alpha-Glucosidase I (Sus scrofa, UniProt K7N7E7); test: Inhibition constants against porcine microsomal alpha-glucosidase I; assay type: biochemical
T2 construct: Alpha-glucosidase I was isolated from porcine liver microsomes; from tissue; host or cells: porcine liver microsomes
T2 sequence (K7N7E7 1-839): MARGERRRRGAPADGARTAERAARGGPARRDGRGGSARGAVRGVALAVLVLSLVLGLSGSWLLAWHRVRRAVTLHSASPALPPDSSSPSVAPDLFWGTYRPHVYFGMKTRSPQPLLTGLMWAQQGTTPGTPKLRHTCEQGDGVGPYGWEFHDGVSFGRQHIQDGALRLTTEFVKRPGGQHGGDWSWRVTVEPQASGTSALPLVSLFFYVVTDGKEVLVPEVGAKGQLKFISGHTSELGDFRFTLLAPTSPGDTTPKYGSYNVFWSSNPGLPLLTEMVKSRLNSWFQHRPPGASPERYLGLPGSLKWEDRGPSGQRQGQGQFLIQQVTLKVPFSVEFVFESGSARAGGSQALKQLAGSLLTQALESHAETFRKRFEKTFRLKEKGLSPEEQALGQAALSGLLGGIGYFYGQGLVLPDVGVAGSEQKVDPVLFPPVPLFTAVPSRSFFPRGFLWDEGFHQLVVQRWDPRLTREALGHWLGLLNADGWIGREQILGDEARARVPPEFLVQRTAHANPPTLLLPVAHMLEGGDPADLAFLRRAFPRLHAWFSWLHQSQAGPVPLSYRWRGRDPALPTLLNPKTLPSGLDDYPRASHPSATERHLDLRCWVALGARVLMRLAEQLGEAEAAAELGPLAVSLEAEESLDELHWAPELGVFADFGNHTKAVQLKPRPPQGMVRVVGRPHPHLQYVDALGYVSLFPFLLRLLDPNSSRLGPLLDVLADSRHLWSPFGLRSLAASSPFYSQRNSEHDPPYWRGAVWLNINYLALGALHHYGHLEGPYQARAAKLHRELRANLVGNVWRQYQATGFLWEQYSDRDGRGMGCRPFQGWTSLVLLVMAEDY
Procedure: Porcine Microsomal Alpha-Glucosidase I. Alpha-glucosidase I was isolated from porcine liver microsomes by an affinity chromatographic method similar to that described by Hettkamp et.al., Eur J. Biochem. 142, 85-90 (1981).
Inhibition constants for the various DNJ derivatives and castanospermine were determined assuming competitive inhibition and were derived from the initial rates for the hydrolysis of [^14 C-Glc]Glc3 Man9 GlcNAc2 (at a concentration of 0.044 μM), at pH7.0 and 37° C. in the presence and absence of several fixed concentrations of each inhibitor.

[4] = biological target: T3, Porcine Intestinal Maltase (Sus scrofa, UniProt P56729); test: Inhibition constants against porcine intestinal maltase; assay type: biochemical
T3 construct: both chains cut from one SI precursor
T3 sequence (P56729 with tags, fused parts or gaps): as the sequence (P56729 with tags, fused parts or gaps) above
Procedure: as §1, with “Under the standard assay conditions release of glucose was linear up to 8% hydrolysis of the substrate. The specific activity of maltase was 15.2 units/mg protein.” left out
Inhibition constants for the various DNJ derivatives and castanospermine were determined from Lineweaver-Burk plots of the enzyme-catalyzed reaction in the presence and absence of different fixed concentrations of each inhibitor. […]

[5] = tested on: human immunodeficiency virus (HIV); conditions: at noncytotoxic concentrations; cited from earlier work
[6] = pig small intestine, 30 mM sucrose, pH 6.0, 37° C., 30 min, Lineweaver-Burk plots, read-out: Ki Intestinal Sucrase
[7] = porcine liver microsomes, substrate [14C-Glc]Glc3Man9GlcNAc2 0.044 μM, pH 7.0, 37° C., competitive inhibition assumed, read-out: Ki Microsomal α-Glucosidase I

Row | Structure (SMILES) | Dephosphorylation by alkaline phosphatase ([1]; listed as N-Butyldeoxynojirimycin-6-phosphate) | Dephosphorylation by alkaline phosphatase ([1]; listed as N-butyl-deoxynojirimycin-6-phosphate) | Ki [2, 6] [µM] | Inhibition of α-glucosidase I (in words) [3] | Ki [3, 7] [µM] | Inhibition of sucrase (in words) [2] | Inhibition of maltase (in words) [4] | Ki [2] [µM] | Ki [3] [µM] | Reduction of virus titer [5]
1 | OC[C@H]1NC[C@H](O)[C@@H](O)[C@@H]1O [DNJ, deoxynojirimycin] |  |  |  |  |  |  |  | 0.05 | 0.83 | 
2 | CCCCN1C[C@H](O)[C@@H](O)[C@H](O)[C@H]1CO [N-BuDNJ, N-butyldeoxynojirimycin] |  |  |  |  |  | potent inhibitor | potent inhibitor | 0.18 | 0.22 | greater than five logarithms

Now from value to molecule, other results behind:

Row | Dephosphorylation by alkaline phosphatase ([1]; listed as N-Butyldeoxynojirimycin-6-phosphate) | Dephosphorylation by alkaline phosphatase ([1]; listed as N-butyl-deoxynojirimycin-6-phosphate) | Ki [2, 6] [µM] | Inhibition of α-glucosidase I (in words) [3] | Ki [3, 7] [µM] | Structure (SMILES) | Inhibition of sucrase (in words) [2] | Inhibition of maltase (in words) [4] | Ki [2] [µM] | Ki [3] [µM] | Reduction of virus titer [5]
3 | completely dephosphorylated | completely dephosphorylted | 1500 | very weak inhibitor | 4000 | CCCCN1C[C@H](O)[C@@H](O)[C@H](O)[C@H]1COP(=O)(O)O [N-BuDNJ-6-P, N-butyldeoxynojirimycin-6-phosphate] | very weak inhibitor | very weak inhibitor |  |  | 
4 |  |  | 0.064 |  | 0.04 | O[C@H]1[C@H](O)[C@@H](O)CN2CC[C@H](O)[C@H]12 [Castanospermine, castanospermine] |  |  |  |  | 
5 |  |  | 520 |  | 6600 | O=P(O)(O)OC[C@H]1NC[C@H](O)[C@@H](O)[C@@H]1O [DNJ-6-P, deoxynojirimycin-6-phosphate] |  |  |  |  | 
